Bounds are passed on as bounds.

Holding throughout (assay type): cell-based
For experiment [1], the system named is SKOV3 cells. The experiment in a line: Cell proliferation experiment, SKOV3 cells. The settings on record: Homo sapiens, SK-OV-3, SKOV3 cells, Cell Titer-Glo; read-out: Cell antiproliferation data SKOV3. As to the method:
(§1) Reagents: RPMI-1640 medium, McCoy's 5A medium, IMDM medium, MEM medium, L-15 medium, fetal bovine serum, Penicillin-Streptomycin double antibody, trypsin, etc., 2-mercaptoethanol, NEAA, pyruvate, etc.
(§2) The test cells were cultured in conventional ways, and the cells should be passed for at least 2 generations before plating.
(§3) 25 μL of 1000 HT-29, N87, SKOV3, Colo-205 and MDA-MB-231 cells were inoculated in a 384-well plate with black wall and transparent bottom, 25 μL of different concentrations of compounds were added, and the cells were cultured overnight under condition of 37° C. and 5% CO2.
(§4) 25 μL of 1500 H82 and H69 cells were inoculated in a 384-well plate with black wall and transparent bottom, 25 μL of different concentrations of compounds were added, and the cells were cultured for 72 hours under condition of 37° C. and 5% CO2. The 384-well plate was equilibrated at room temperature, 25 μL of Cell Titer-Glo® reagent was added to each well, and the cells were lysed by shaking on a horizontal shaking shaker for 2 minutes, incubated at room temperature for 10 minutes to stabilize the luminescent signal, and then the chemiluminescent signal was detected using Envision.
(§5) All cells were subjected to IC50 test for corresponding samples.
(§6) The fluorescence intensity of each well was detected using the Alarm blue method, and EC50 was calculated.
(§7) IC50 was calculated according to the following formula:
(§8) [formula] • wherein, Min, Max and Slope represent the minimum, maximum and slope respectively.
In general terms: In ATP-based viability assays light output follows the ATP content of the culture.

Experiment [2] relates to H82 cells. The experiment in a line: Cell proliferation experiment, H82 cells. The settings on record: Homo sapiens, NCI-H82, cultured for 72 hours, Cell Titer-Glo, read-out: Cell antiproliferation data H82. The procedure: as §1, §2, §4
(§9) All cells were subjected to IC50 test for corresponding samples. […]
as §7, §8

The subject of experiment [3] is MDA-MB-231 cells. The experiment in a line: Cell proliferation experiment, MDA-MB-231 cells. The following applies: Homo sapiens, Cell Titer-Glo, read-out: Cell antiproliferation data MDA-MB-231. The procedure:
as §1, §2, §3, §4, §5, §6, §7, §8

Experiment [4] concerns H69 cells. The experiment in a line: Cell proliferation experiment, H69 cells. The following applies: Homo sapiens, NCI-H69, 72 h, cultured for 72 hours, Cell Titer-Glo, read-out: Cell antiproliferation data H69. The procedure: as §1, §2, §4, §9, §7, §8
The subject of experiment [5] is N87 cells. Kind of experiment: Cell proliferation experiment, N87 cells. The following applies: Cell Titer-Glo, read-out: Cell antiproliferation data N87. The procedure:
as §1, §2, §3, §4, §5, §6, §7, §8

For experiment [6], the system named is HT-29 cells. The experiment in a line: Cell proliferation experiment, HT-29 cells. The settings on record: Homo sapiens, Cell Titer-Glo, read-out: Cell antiproliferation data HT-29. The procedure:
as §1, §2, §3, §4, §5, §6, §7, §8

Experiment [7] deals with Colo-205 cells. The experiment in a line: Cell proliferation experiment, Colo-205 cells. The settings on record: Homo sapiens, COLO 205, Colo-205 cells, Cell Titer-Glo; read-out: Cell antiproliferation data Colo-205. As to the method:
as §1, §2, §3, §4, §5, §6, §7, §8

Regarding `CC(C)n1cnc2c(NCc3ccc(-c4ccccc4)cc3)nc(N3CCCCC3)nc21` [UB-008, N-([1,1′-biphenyl]-4-ylmethyl)-9-isopropyl-2-(Piperidin-1-yl)-9H-purin-6-amine], the IC50 in experiment [1], in experiment [2], in experiment [3], in experiment [4], in experiment [5] and in experiment [6] was above 300 nM in each case. In addition, in experiment [7], the IC50 is above 300 nM.

In the case of `CC(C)n1cnc2c(NCc3ccc(-c4ccccc4)cc3)nc(N3CCOCC3)nc21` [UB-009, N-([1,1′-biphenyl]-4-ylmethyl)-9-isopropyl-2-morpholino-9H-purin-6-amine], the IC50 in experiment [1], in experiment [2], in experiment [3], in experiment [4], in experiment [5] and in experiment [6] was above 300 nM throughout. The IC50 in experiment [7] was above 300 nM.

With `CC(C)n1cnc2c(NCc3ccc(-c4ccccc4)cc3)nc(N3CCNCC3)nc21` [UB-010, N-([1,1′-biphenyl]-4-ylmethyl)-9-isopropyl-2-(piperazin-1-yl)-9H-purin-6-amine], the IC50 in experiment [1] was at most 100 nM; in experiment [2] it was at most 100 nM; in experiment [3], at most 100 nM; in experiment [4] it was 100 to 300 nM; in experiment [5], at most 100 nM; in experiment [6] it was at most 100 nM. Also, the IC50 in experiment [7] is at most 100 nM.

`CC(C)n1cnc2c(NCc3ccc(-c4ccccc4)cc3)nc(N3CCN(C)CC3)nc21` [UB-011, N-([1,l′-biphenyl]-4-ylmethyl)-9-isopropyl-2-(4-methylpiperazin-1-yl)-9H-purin-6-amine]: the IC50 is above 300 nM in experiment [1]; 100 to 300 nM in experiment [2]; 100 to 300 nM in experiment [3]; above 300 nM in experiment [4]; 100 to 300 nM in experiment [5]; 100 to 300 nM in experiment [6]. Further, the IC50 in experiment [7] was above 300 nM.

As for `CC(C)n1cnc2c(NCc3ccc(-c4ccccc4)cc3)nc(N3CCC[C@H](N)C3)nc21` [UB-012, (S)-N-([1,1′-biphenyl]-4-ylmethyl)-2-(3-aminopiperidin-1-yl)-9-isopropyl-9H-purin-6-amine], the IC50 in experiment [1] is 100 to 300 nM; in experiment [2], at most 100 nM; in experiment [3], at most 100 nM; in experiment [4], 100 to 300 nM; in experiment [5], at most 100 nM; in experiment [6], at most 100 nM. Also, the IC50 in experiment [7] was at most 100 nM.

`CC(C)n1cnc2c(NCc3ccc(-c4ccccc4)cc3)nc(N3CCC[C@@H](N)C3)nc21` [UB-013, (R)-N-([1,1′-biphenyl]-4-ylmethyl)-2-(3-aminopiperidin-1-yl)-9-isopropyl-9H-purin-6-amine]: the IC50 in experiment [1] was 100 to 300 nM; in experiment [2] it was at most 100 nM; in experiment [3] it was at most 100 nM; in experiment [4], 100 to 300 nM; in experiment [5], at most 100 nM; in experiment [6], at most 100 nM. In addition, the IC50 in experiment [7] is at most 100 nM.

As for `CC(C)n1cnc2c(NCc3ccc(-c4ccccc4)cc3)nc(N[C@@H]3CCCNC3)nc21` [UB-014, (R)-N6-([1,1′-biphenyl]-4-ylmethyl)-9-isopropyl-N2-(Piperidin-3-yl)-9H-purin-2,6-diamine], the IC50 in experiment [1] was 100 to 300 nM; in experiment [2], at most 100 nM; in experiment [3] it was at most 100 nM; in experiment [4], 100 to 300 nM; in experiment [5] it was at most 100 nM; in experiment [6], at most 100 nM. Moreover, in experiment [7], the IC50 was at most 100 nM.

Consider `CC(C)n1cnc2c(NCc3ccc(-c4ccccc4)cc3)nc(N[C@H]3CCCNC3)nc21` [UB-015, (S)-N6-([1,1′-biphenyl]-4-ylmethyl)-9-isopropyl-N2-(Piperidin-3-yl)-9H-purin-2,6-diamine], for which the IC50 in experiment [1] is 100 to 300 nM; in experiment [2] it was at most 100 nM; in experiment [3], at most 100 nM; in experiment [4] it was 100 to 300 nM; in experiment [5], at most 100 nM; in experiment [6] it was at most 100 nM. In addition, the IC50 in experiment [7] was at most 100 nM.

Regarding `CC(C)n1cnc2c(NCc3ccc(-c4ccccc4)cc3)nc(N3CCC(N)CC3)nc21` [UB-017, N-([1,1′-biphenyl]-4-ylmethyl)-2-(4-amino-piperidin-1-yl)-9-isopropyl-9H-purin-6-amine], the IC50 is 100 to 300 nM in experiment [1]; 100 to 300 nM in experiment [2]; at most 100 nM in experiment [3]; 100 to 300 nM in experiment [4]; at most 100 nM in experiment [5]; at most 100 nM in experiment [6]. Further, in experiment [7], the IC50 lay within 100 to 300 nM.

The record behind these values is US20260152501A1, “CYCLIN MODULATOR” (EUBULUS BIOTHERAPEUTICS (HONG KONG) LIMITED, priority 2022, published 2026).
